Several values for one entry are separate records, joined by “and”; a condition that tells them apart may be missing. Equal entries are not always repeated.
Molecular target: T1, CREB-CRTC2 interaction (Homo sapiens, UniProt P16220)
T1 construct: expressed in transfected cells; host or cells: HEK293T
Assay: CREB–CRTC2 mammalian two-hybrid assay (GAL4-Luc reporter)
Type: cell-based
Settings: Figure 1f; CREB-CRTC2 two-hybrid assay; DMSO control about 100

T1 sequence (P16220 whole entry): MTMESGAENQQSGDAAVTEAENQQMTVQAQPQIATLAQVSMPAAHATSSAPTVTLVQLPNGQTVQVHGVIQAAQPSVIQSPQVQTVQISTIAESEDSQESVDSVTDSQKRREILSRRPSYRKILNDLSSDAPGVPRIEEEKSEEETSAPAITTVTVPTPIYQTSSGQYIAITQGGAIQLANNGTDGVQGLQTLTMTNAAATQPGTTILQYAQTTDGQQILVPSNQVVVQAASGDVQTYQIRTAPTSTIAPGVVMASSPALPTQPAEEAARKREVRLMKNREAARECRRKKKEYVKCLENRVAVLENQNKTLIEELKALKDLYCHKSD

SMILES | Relative Gal4-LUC activity, single replicates
O=c1c(O)c(-c2ccc(O)cc2)oc2cc(O)cc(O)c12 [P12, kaempferol] | 73.7017 and 114.823 and 172.832
COc1ccc(-c2oc3cc(O)cc(O)c3c(=O)c2O)cc1 [P13, kaempferide] | 126.299 and 72.1957 and 55.4453
O=c1c(O)c(-c2ccc(O)c(O)c2)oc2cc(O)cc(O)c12 [P14, quercetin] | 130.988 and 153.776 and 136.769
COc1c(O)cc2oc(-c3ccc(O)cc3)c(O)c(=O)c2c1O [P15, 6-methoxykaempferol] | 91.5539 and 105.994 and 143.876
COc1ccc(-c2oc3cc(O)c(OC)c(O)c3c(=O)c2O)cc1 [P16, betuletol] | 48.4823 and 30.8552 and 26.2372
COc1ccc(-c2oc3cc(O)c(O)c(O)c3c(=O)c2OC)cc1 [P17, 5,6,7,-trihydroxy-3,4′-dimethoxyflavone] | 79.2706 and 131.512 and 110.674
O=C1C[C@@H](c2ccccc2)Oc2cc(O)cc(O)c21 [P18, pinocembrin] | 63.0454 and 51.143 and 49.1354
O=C1c2c(O)cc(O)cc2O[C@H](c2ccc(O)cc2)[C@H]1O [P20, aromadendrin] | 126.871 and 59.3858 and 61.7309
COc1ccc(C2Oc3cc(O)cc(O)c3C(=O)C2O)cc1 (stereo not drawn) [P21, dihydrokaempferide] | 44.892 and 54.8815 and 50.4357
